For this assay, the target named is human PCSK9 (Homo sapiens, UniProt Q8NBP7). Nature of the assay: PCSK9 ligand binding assay (TR-FRET): interference with binding of human PCSK9 to human LDLR. The following applies: for IC50: Human PCSK9 Alexa Fluor 647 / Human LDLR extracellular domain-Europium Kryptate; for Max % inhibition: efficacy (Amax), 100% = 1 uM unlabeled human PCSK9, 0% = DMSO. An outline of the steps: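 Read-out was TR-FRET ratio (665 nm over 615 nm, 330 nm excitation) between Alexa Fluor 647-human PCSK9 (16 nM added) and Europium Kryptate-human LDLR ectodomain (4 nM added). Compound and PCSK9 were mixed 30 min before LDLR, then incubated 2 h. Inhibition was normalised to DMSO and unlabelled-PCSK9 controls, giving IC50 and Amax.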
Background: TR-FRET usually uses a lanthanide donor and a delayed reading to cut background.

Molecules are shown by their SMILES.

human PCSK9, sequence (Q8NBP7 153-692): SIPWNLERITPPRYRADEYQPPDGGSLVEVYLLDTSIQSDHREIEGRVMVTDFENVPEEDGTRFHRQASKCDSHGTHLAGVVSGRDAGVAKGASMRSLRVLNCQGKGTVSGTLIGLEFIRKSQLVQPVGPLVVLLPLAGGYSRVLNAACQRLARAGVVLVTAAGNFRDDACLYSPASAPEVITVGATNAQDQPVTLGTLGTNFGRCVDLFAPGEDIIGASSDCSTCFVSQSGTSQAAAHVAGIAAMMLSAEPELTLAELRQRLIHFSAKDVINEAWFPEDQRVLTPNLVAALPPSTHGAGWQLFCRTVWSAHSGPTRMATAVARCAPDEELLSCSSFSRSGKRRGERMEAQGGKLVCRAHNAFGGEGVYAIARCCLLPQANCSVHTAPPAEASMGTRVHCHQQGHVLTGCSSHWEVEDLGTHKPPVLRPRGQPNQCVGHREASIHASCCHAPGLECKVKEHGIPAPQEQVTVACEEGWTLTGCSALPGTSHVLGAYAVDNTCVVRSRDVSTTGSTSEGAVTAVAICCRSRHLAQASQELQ
human PCSK9, sequence (Q8NBP7 31-152 partner limits assumed): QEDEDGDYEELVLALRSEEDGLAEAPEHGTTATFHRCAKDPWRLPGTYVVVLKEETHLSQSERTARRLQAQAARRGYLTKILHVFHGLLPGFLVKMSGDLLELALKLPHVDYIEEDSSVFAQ

In general, IC50 refers to the concentration at which inhibition is half-maximal. For the compound `C[C@H]1C(=O)N[C@@H](CO)C(=O)N[C@@]2(Cc3ccc(Cl)cc3)CCCN(C2)C(=O)[C@H](CC2CC2)CC(=O)N1Cc1c(F)cc(Cl)cc1Oc1ccc(-c2cnc(CNC3CCC3)n2C)cc1` [Compound 153, (3R, 7S, 10S, 13R)-6-(4-chloro-2-(4-(2-((cyclobutylamino)methyl)-1-methyl-1H-imidazol-5-yl)phenoxy)-6-fluorobenzyl)-13-(4-chlorobenzyl)-3-(cyclopropylmethyl)-10-(hydroxymethyl)-7-methyl-1,6,9,12-tetraazabicyclo[11.3.1]heptadecane-2,5,8,11-tetraone], the IC50 is 0.93 nM and the Max % inhibition turned out to be 100.4%.

As to `C[C@H]1C(=O)N[C@@H](CO)C(=O)N[C@@]2(Cc3ccc(Cl)cc3)CCCN(C2)C(=O)[C@H](CC2CC2)CC(=O)N1Cc1c(F)cc(Cl)cc1Oc1ccc(-c2cnc(CNC(C)(C)C)n2C)cc1` [Compound 154, (3R, 7S, 10S, 13R)-6-(2-(4-(2-((tert-butylamino)methyl)-1-methyl-1H-imidazol-5-yl)phenoxy)-4-chloro-6-fluorobenzyl)-13-(4-chlorobenzyl)-3-(cyclopropylmethyl)-10-(hydroxymethyl)-7-methyl-1,6,9,12-tetraazabicyclo[11.3.1]heptadecane-2,5,8,11-tetraone], the IC50 is 0.71 nM and the Max % inhibition is given as 104.6%.

As to `C[C@H]1C(=O)N[C@@H](CO)C(=O)N[C@@]2(Cc3ccc(Cl)cc3)CCCN(C2)C(=O)[C@H](CC2CCC2)CC(=O)N1Cc1c(F)cc(Cl)cc1Oc1ccc(-c2cnc(CN(C)C)n2C)cc1` [Compound 155, (3R, 7S, 10S, 13R)-6-(4-chloro-2-(4-(2-((dimethylamino)methyl)-1-methyl-1H-imidazol-5-yl)phenoxy)-6-fluorobenzyl)-13-(4-chlorobenzyl)-3-(cyclobutylmethyl)-10-(hydroxymethyl)-7-methyl-1,6,9,12-tetraazabicyclo[11.3.1]heptadecane-2,5,8,11-tetraone], the IC50 was 0.95 nM and the Max % inhibition is listed as 101.4%.

As for `COC[C@@H]1NC(=O)[C@H](C)N(Cc2c(F)cc(Cl)cc2Oc2ccc(-c3cnc(CN4CCC4)n3C)cc2)C(=O)C[C@@H](CC(F)(F)F)C(=O)N2CCC[C@@](Cc3ccc(Cl)cc3)(C2)N(C)C1=O` [Compound 157, (3S, 7S, 10S, 13R)-6-(2-(4-(2-(azetidin-1-ylmethyl)-1-methyl-1H-imidazol-5-yl)phenoxy)-4-chloro-6-fluorobenzyl)-13-(4-chlorobenzyl)-10-(methoxymethyl)-7,12-dimethyl-3-(2,2,2-trifluoroethyl)-1,6,9,12-tetraazabicyclo[11.3.1]heptadecane-2,5,8,11-tetraone], the IC50 stood at 1.18 nM and the Max % inhibition turned out to be 104.7%.

On to `COC[C@@H]1NC(=O)[C@H](C)N(Cc2c(F)cc(Cl)cc2Oc2ccc(-c3cnc(CN(C)C)n3C)cc2)C(=O)C[C@@H](CC(C)(F)F)C(=O)N2CCC[C@@](Cc3ccc(Cl)cc3)(C2)N(C)C1=O` [Compound 158, (3S, 7S, 10S, 13R)-6-(4-chloro-2-(4-(2-((dimethylamino)methyl)-1-methyl-1H-imidazol-5-yl)phenoxy)-6-fluorobenzyl)-13-(4-chlorobenzyl)-3-(2,2-difluoropropyl)-10-(methoxymethyl)-7,12-dimethyl-1,6,9,12-tetraazabicyclo[11.3.1]heptadecane-2,5,8,11-tetraone], for which the IC50 is 0.96 nM and the Max % inhibition was found to be 110.3%.

On to `COC[C@@H]1NC(=O)[C@H](C)N(Cc2c(F)cc(Cl)cc2Oc2ccc(-c3cnc(CN(C)C)n3C)cc2)C(=O)C[C@@H](Cc2ccccc2)C(=O)N2CCC[C@@](Cc3ccc(Cl)cc3)(C2)N(C)C1=O` [Compound 159, (3R, 7S, 10S, 13R)-3-benzyl-6-(4-chloro-2-(4-(2-((dimethylamino)methyl)-1-methyl-1H-imidazol-5-yl)phenoxy)-6-fluorobenzyl)-13-(4-chlorobenzyl)-10-(methoxymethyl)-7,12-dimethyl-1,6,9,12-tetraazabicyclo[11.3.1]heptadecane-2,5,8,11-tetraone], for which the IC50 is 1.25 nM and the Max % inhibition is on record as 114.0%.

With `COC[C@@H]1NC(=O)[C@H](C)N(Cc2c(F)cc(Cl)cc2Oc2ccc(-c3cnc(CN(C)C4CCC4)n3C)cc2)C(=O)C[C@@H](CC(F)(F)F)C(=O)N2CCC[C@@](Cc3ccc(Cl)cc3)(C2)NC1=O` [Compound 160, (3S, 7S, 10S, 13R)-6-(4-chloro-2-(4-(2-((cyclobutyl(methyl)amino)methyl)-1-methyl-1H-imidazol-5-yl)phenoxy)-6-fluorobenzyl)-13-(4-chlorobenzyl)-10-(methoxymethyl)-7-methyl-3-(2,2,2-trifluoroethyl)-1,6,9,12-tetraazabicyclo[11.3.1]heptadecane-2,5,8,11-tetraone], the IC50 is 1.63 nM and the Max % inhibition stood at 113.8%.

On to `C[C@H]1C(=O)N[C@@H](CO)C(=O)N[C@@]2(Cc3ccc(Cl)cc3)CCCN(C2)C(=O)[C@H](C2CC(F)(F)C2)CC(=O)N1Cc1c(F)cc(Cl)cc1Oc1ccc(-c2cnc(CN(C)C)n2C)cc1` [Compound 161, (3S, 7S, 10S, 13R)-6-(4-chloro-2-(4-(2-((dimethylamino)methyl)-1-methyl-1H-imidazol-5-yl)phenoxy)-6-fluorobenzyl)-13-(4-chlorobenzyl)-3-(3,3-difluorocyclobutyl)-10-(hydroxymethyl)-7-methyl-1,6,9,12-tetraazabicyclo[11.3.1]heptadecane-2,5,8,11-tetraone], for which the IC50 amounted to 0.33 nM and the Max % inhibition was 115.5%.

On to `C[C@H]1C(=O)N[C@@H](CO)C(=O)N[C@@]2(Cc3ccc(Cl)cc3)CCCN(C2)C(=O)[C@H](CC2CC2)CC(=O)N1Cc1ccc(Cl)cc1Oc1ccc(-c2cnc(CN(C)C(C)(C)C)n2C)cc1` [Compound 162, (3R, 7S, 10S, 13R)-6-(2-(4-(2-((tert-butyl(methyl)amino)methyl)-1-methyl-1H-imidazol-5-yl)phenoxy)-4-chlorobenzyl)-13-(4-chlorobenzyl)-3-(cyclopropylmethyl)-10-(hydroxymethyl)-7-methyl-1,6,9,12-tetraazabicyclo[11.3.1]heptadecane-2,5,8,11-tetraone], for which the concentration for half-maximal inhibition (IC50) was 1.3 nM and the Max % inhibition was 114.4%.

Consider `C[C@H]1C(=O)N[C@@H](CO)C(=O)N[C@@]2(Cc3ccc(Cl)cc3)CCCN(C2)C(=O)[C@H](CC2CC2)CC(=O)N1Cc1c(F)cc(Cl)cc1Oc1ccc(-c2cnc(CN(C)C(C)(C)C)n2C)cc1` [Compound 163, (3R, 7S, 10S, 13R)-6-(2-(4-(2-((tert-butyl(methyl)amino)methyl)-1-methyl-1H-imidazol-5-yl)phenoxy)-4-chloro-6-fluorobenzyl)-13-(4-chlorobenzyl)-3-(cyclopropylmethyl)-10-(hydroxymethyl)-7-methyl-1,6,9,12-tetraazabicyclo[11.3.1]heptadecane-2,5,8,11-tetraone], for which the IC50 amounted to 1.21 nM and the Max % inhibition was 111.6%.

Regarding `C[C@H]1C(=O)N[C@@H](CO)C(=O)N(C)[C@@]2(Cc3ccc(Cl)cc3)CCCN(C2)C(=O)[C@H](C2CC(F)(F)C2)CC(=O)N1Cc1c(F)cc(Cl)cc1Oc1ccc(-c2cnc(CN(C)C)n2C)cc1` [Compound 164, (3S, 7S, 10S, 13R)-6-(4-chloro-2-(4-(2-((dimethylamino)methyl)-1-methyl-1H-imidazol-5-yl)phenoxy)-6-fluorobenzyl)-13-(4-chlorobenzyl)-3-(3,3-difluorocyclobutyl)-10-(hydroxymethyl)-7,12-dimethyl-1,6,9,12-tetraazabicyclo[11.3.1]heptadecane-2,5,8,11-tetraone], the IC50 is 0.9 nM and the Max % inhibition amounted to 109.6%.

As to `COC[C@@H]1NC(=O)[C@H](C)N(Cc2c(F)cc(Cl)cc2Oc2ccc(-c3cnc(CNC(C)(C)C)n3C)cc2)C(=O)C[C@@H](C2CC(F)(F)C2)C(=O)N2CCC[C@@](Cc3ccc(Cl)cc3)(C2)N(C)C1=O` [Compound 165, (3S,7S,10S,13R)-6-(2-(4-(2-((tert-butylamino)methyl)-1-methyl-1H-imidazol-5-yl)phenoxy)-4-chloro-6-fluorobenzyl)-13-(4-chlorobenzyl)-3-(3,3-difluorocyclobutyl)-10-(methoxymethyl)-7,12-dimethyl-1,6,9,12-tetraazabicyclo[11.3.1]heptadecane-2,5,8,11-tetraone], the IC50 came out at 0.93 nM and the Max % inhibition is given as 113.3%.

As for `COC[C@@H]1NC(=O)[C@H](C)N(Cc2c(F)cc(Cl)cc2Oc2ccc(-c3cnc(CN)n3C)cc2)C(=O)C[C@@H](C2CC(F)(F)C2)C(=O)N2CCC[C@@](Cc3ccc(Cl)cc3)(C2)N(C)C1=O` [Compound 166, (3S, 7S, 10S, 13R)-6-(2-(4-(2-(aminomethyl)-1-methyl-1H-imidazol-5-yl)phenoxy)-4-chloro-6-fluorobenzyl)-13-(4-chlorobenzyl)-3-(3,3-difluorocyclobutyl)-10-(methoxymethyl)-7,12-dimethyl-1,6,9,12-tetraazabicyclo[11.3.1]heptadecane-2,5,8,11-tetraone], the IC50 turned out to be 0.74 nM and the Max % inhibition amounted to 98.1%.

Regarding `CNCc1ncc(-c2ccc(Oc3cc(Cl)cc(F)c3CN3C(=O)C[C@@H](Cc4cccc(C)n4)C(=O)N4CCC[C@@](Cc5ccc(Cl)cc5)(C4)N(C)C(=O)[C@H](COC)NC(=O)[C@@H]3C)cc2)n1C` [Compound 167, (3R,7S,10S,13R)-6-(4-chloro-2-fluoro-6-(4-(1-methyl-2-((methylamino)methyl)-1H-imidazol-5-yl)phenoxy)benzyl)-13-(4-chlorobenzyl)-10-(methoxymethyl)-7,12-dimethyl-3-((6-methylpyridin-2-yl)methyl)-1,6,9,12-tetraazabicyclo[11.3.1]heptadecane-2,5,8,11-tetraone], the concentration for half-maximal inhibition (IC50) was found to be 0.9 nM and the Max % inhibition is 108.6%.

The record behind these values is patent US11813306B2, “Cyclic tetramer compounds as proprotein convertase subtilisin/kexin type 9 (PCSK9) inhibitors for the treatment of metabolic disorders” (NOVARTIS AG, priority 2018, dated 2023).
